Data from patent US20230017045A1, “PYRIDINE AND PYRIMIDINE CARBOXYLATE HERBICIDES AND METHODS OF USE THEREOF” (Dow AgroSciences LLC, priority 2017, published 2023).
Where two headings read alike, the source gives them in different places.

Assays:
[1] = test system: test plant species; assay: Post-emergent herbicidal activity test (greenhouse, foliar spray, visual growth reduction); type: in vivo; conditions: post-emergence, 336 h, 140 g ai/ha
Procedure, shortened: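 Plants grown in greenhouse (15 h photoperiod, 23-29° C day/22-28° C night) to first or second true leaf stage were sprayed overhead with compound in acetone/water/isopropanol/DMSO/crop oil/X-77 carrier at 187 L/ha. Injury was scored visually after 14 d on a 0-100% scale versus solvent-blank and untreated controls.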

[2] = ALOMY: blackgrass (Alopecurus myosuroides), 14 days after application, read-out: Visual Growth Reduction (%) 14 Days After Application, ALOMY
[3] = AMARE: redroot pigweed (Amaranthus retroflexus), 14 days after application, read-out: Visual Growth Reduction (%) 14 Days After Application, AMARE
[4] = AVEFA: wild oat (Avena fatua), 14 days after application, read-out: Visual Growth Reduction (%) 14 Days After Application, AVEFA
[5] = CHEAL: lambsquarters (Chenopodium album), 14 days after application, read-out: Visual Growth Reduction (%) 14 Days After Application, CHEAL
[6] = CIRAR: canada thistle (Cirsium arvense), 14 days after application, read-out: Visual Growth Reduction (%) 14 Days After Application, CIRAR
[7] = CYPES: yellow nutsedge (Cyperus esculentus), 14 days after application, read-out: Visual Growth Reduction (%) 14 Days After Application, CYPES
[8] = DIGSA: crabgrass (Digitaria sanguinalis), 14 days after application, read-out: Visual Growth Reduction (%) 14 Days After Application, DIGSA
[9] = ECHCG: barnyardgrass (Echinochloa crus-galli), 14 days after application, read-out: Visual Growth Reduction (%) 14 Days After Application, ECHCG
[10] = IPOHE: ivy-leaf morning glory (Ipomoea hederacea), 14 days after application, read-out: Visual Growth Reduction (%) 14 Days After Application, IPOHE
[11] = KCHSC: kochia (Bassia scoparia), 14 days after application, read-out: Visual Growth Reduction (%) 14 Days After Application, KCHSC
[12] = ORYSA: rice (Oryza sativa), 14 days after application, read-out: Visual Growth Reduction (%) 14 Days After Application, ORYSA
[13] = SETFA: giant foxtail (Setaria faberi), 14 days after application, read-out: Visual Growth Reduction (%) 14 Days After Application, SETFA
[14] = SORVU: grain sorghum (Sorghum vulgare), 14 days after application, read-out: Visual Growth Reduction (%) 14 Days After Application, SORVU
[15] = STEME: common chickweed (Stellaria media), 14 days after application, read-out: Visual Growth Reduction (%) 14 Days After Application, STEME
[16] = TRZAS: wheat, spring (Triticum aestivum), 14 days after application, read-out: Visual Growth Reduction (%) 14 Days After Application, TRZAS
[17] = blackgrass (Alopecurus myosuroides), 14 Days After Application, read-out: Visual Growth Reduction (%) ALOMY
[18] = canada thistle (Cirsium arvense), 14 Days After Application, read-out: Visual Growth Reduction (%) CIRAR
[19] = crabgrass (Digitaria sanguinalis), 14 Days After Application, read-out: Visual Growth Reduction (%) DIGSA
[20] = lambsquarters (Chenopodium album), 14 Days After Application, read-out: Visual Growth Reduction (%) CHEAL
[21] = redroot pigweed (Amaranthus retroflexus), 14 Days After Application, read-out: Visual Growth Reduction (%) AMARE
[22] = wild oat (Avena fatua), 14 Days After Application, read-out: Visual Growth Reduction (%) AVEFA
[23] = yellow nutsedge (Cyperus esculentus), 14 Days After Application, read-out: Visual Growth Reduction (%) CYPES

Row | melting point | Structure (SMILES) | pest or weed control at 140 g/ha [1, 2] | pest or weed control at 140 g/ha [1, 3] | pest or weed control at 140 g/ha [1, 4] | pest or weed control at 140 g/ha [1, 5] | pest or weed control at 140 g/ha [1, 6] | pest or weed control at 140 g/ha [1, 7] | pest or weed control at 140 g/ha [1, 8] | pest or weed control at 140 g/ha [1, 9] | pest or weed control at 140 g/ha [1, 10] | pest or weed control at 140 g/ha [1, 11] | pest or weed control at 140 g/ha [1, 12] | pest or weed control at 140 g/ha [1, 13] | pest or weed control at 140 g/ha [1, 14] | pest or weed control at 140 g/ha [1, 15] | pest or weed control at 140 g/ha [1, 16] | also measured
1 | 61 to 63 °C | COC(=O)c1nc(-c2ccc(C(F)(F)F)cc2Cl)cc(C)c1Cl [F33, methyl 3-chloro-6-(2-chloro-4-(trifluoromethyl)phenyl)-4-methylpicolinate] | 0 to 29% | 0 to 29% | 0 to 29% | 45 to 59% | 45 to 59% | 0 to 29% | 30 to 44% | 0 to 29% | 85 to 94% | 0 to 29% | 0 to 29% | 0 to 29% | 60 to 74% | 0 to 29% | 0 to 29% | 
2 | 56 to 57 °C | O=C(OCc1ccccc1)c1nc(-c2ccc(C(F)(F)F)cc2Cl)ccc1Cl [F44, benzyl 3-chloro-6-(2-chloro-4-(trifluoromethyl)phenyl)picolinate] | 30 to 44% | 95 to 100% | 45 to 59% | 95 to 100% | 95 to 100% | 0 to 29% | 75 to 84% | 45 to 59% | 95 to 100% | 85 to 94% | 0 to 29% | 85 to 94% | 85 to 94% | 0 to 29% | 75 to 84% | 
3 | 85 to 86 °C | COC(=O)c1nc(-c2ccc(C(F)(F)F)cc2Cl)c(Cl)cc1Cl [F103, Methyl 3,5-dichloro-6-(2-chloro-4-(trifluoromethyl)phenyl)picolinate] | 0 to 29% | 60 to 74% | 0 to 29% | 75 to 84% | 85 to 94% | 0 to 29% | 30 to 44% | 0 to 29% | 95 to 100% | 75 to 84% | 0 to 29% | 60 to 74% | 75 to 84% | 0 to 29% | 0 to 29% | 
4 | 127 to 128 °C | COC(=O)c1nc(-c2ccc(C(F)(F)F)cc2Cl)cc(F)c1Cl [F109, methyl 3-chloro-6-(2-chloro-4-(trifluoromethyl)phenyl)-4-fluoropicolinate] | 0 to 29% | 0 to 29% | 0 to 29% | 0 to 29% | 0 to 29% | 0 to 29% | 0 to 29% | 0 to 29% | 0 to 29% | 0 to 29% | 0 to 29% | 0 to 29% | 0 to 29% |  | 0 to 29% | 

The next lines start with the compound.

Row | Structure (SMILES) | melting point | pest or weed control at 140 g/ha [1, 2] | pest or weed control at 140 g/ha [1, 3] | pest or weed control at 140 g/ha [1, 4] | pest or weed control at 140 g/ha [1, 5] | pest or weed control at 140 g/ha [1, 6] | pest or weed control at 140 g/ha [1, 7] | pest or weed control at 140 g/ha [1, 8] | pest or weed control at 140 g/ha [1, 9] | pest or weed control at 140 g/ha [1, 10] | pest or weed control at 140 g/ha [1, 11] | pest or weed control at 140 g/ha [1, 12] | pest or weed control at 140 g/ha [1, 13] | pest or weed control at 140 g/ha [1, 14] | pest or weed control at 140 g/ha [1, 15] | pest or weed control at 140 g/ha [1, 16] | also measured
5 | COC(=O)c1nc(-c2ccc(C(F)(F)F)cc2Cl)c(F)c(OC)c1Cl [F42, methyl 3-chloro-6-(2-chloro-4-(trifluoromethyl)phenyl)-5-fluoro-4-methoxypicolinate] | 65 to 67 °C | 0 to 29% | 30 to 44% | 0 to 29% | 85 to 94% | 60 to 74% | 0 to 29% | 0 to 29% | 0 to 29% | 85 to 94% | 45 to 59% | 0 to 29% | 0 to 29% | 75 to 84% | 0 to 29% | 0 to 29% | 
6 | O=C(OCc1ccccc1C(F)(F)F)c1nc(-c2ccc(C(F)(F)F)cc2Cl)ccc1Cl [F380, 2-(Trifluoromethyl) benzyl 3-chloro-6-(2-chloro-4-(trifluoromethyl)phenyl)picolinate] |  |  |  |  |  |  |  |  | 75 to 84% | 95 to 100% | 75 to 84% | 0 to 29% | 95 to 100% | 95 to 100% | 0 to 29% | 60 to 74% | pest or weed control at 140 g/ha [1, 17]: 45 to 59%; pest or weed control at 140 g/ha [1, 18]: 85 to 94%; pest or weed control at 140 g/ha [1, 19]: 95 to 100%; pest or weed control at 140 g/ha [1, 20]: 95 to 100%; pest or weed control at 140 g/ha [1, 21]: 95 to 100%; pest or weed control at 140 g/ha [1, 22]: 60 to 74%; pest or weed control at 140 g/ha [1, 23]: 0 to 29%
7 | C=C(C)COC(=O)c1nc(-c2ccc(C(F)(F)F)cc2Cl)ccc1Cl [F381, 2-Methylallyl 3-chloro-6-(2-chloro-4-(trifluoromethyl)phenyl)picolinate] |  |  |  |  |  |  |  |  | 85 to 94% | 95 to 100% | 95 to 100% | 0 to 29% | 85 to 94% | 85 to 94% | 0 to 29% | 60 to 74% | pest or weed control at 140 g/ha [1, 17]: 45 to 59%; pest or weed control at 140 g/ha [1, 18]: 85 to 94%; pest or weed control at 140 g/ha [1, 19]: 85 to 94%; pest or weed control at 140 g/ha [1, 20]: 95 to 100%; pest or weed control at 140 g/ha [1, 21]: 85 to 94%; pest or weed control at 140 g/ha [1, 22]: 45 to 59%; pest or weed control at 140 g/ha [1, 23]: 0 to 29%
